In US20230000844A1, “BIOMARKERS FOR NANOPARTICLE COMPOSITIONS” (Abraxis BioScience, LLC, priority 2019, published 2023):

Legend:
[1] = Stable isotope tracer ultrafiltration assay (SITUA) of rapamycin drug release from ABI-009 lots; format: physicochemical; conditions: 10 minutes incubation, 4.5% human serum albumin, 29° C.
Procedure: A study was also undertaken to analyze rapamycin drug release from 12 lots of ABI-009 (Lots #1-10 and Lots 14-15) using a stable isotope tracer ultrafiltration assay (SITUA) (see Skoczen et al., Stable Isotope Method to Measure Drug Release from Nanomedicines, J. Control Release, 220(A):169-174 (2015). Drug release was examined at 10 μg/ml and 500 μg/ml of rapamycin following 10 minutes of incubation. Briefly, stable, isotope-labeled rapamycin was spiked into 4.5% human serum albumin (25% Albutein HSA diluted in 0.9% saline). MeOH-solvent rapamycin (as a control) or fresh reconstituted samples of each lot at 10 μg/ml or 500 μg/ml were added. After 10 minutes of equilibration at 29° C., a portion of the sample is taken and filtered using Vivacon®) 10 kDa MWCO centrifuge devices prewarmed to 29° C. The sample and the ultrafiltrate are analyzed by LC-MS to determine the concentrations of normal rapamycin and isotope-labelled rapamycin. The ultrafilterable fraction of isotope-labeled rapamycin represents a measurement of free unbound fraction.
The encapsulated and unencapsulated nanoparticle fractions can also be calculated.

[2] = system: non-PEComa cancer with TSC1, TSC2 or mTOR mutation; experiment: ABI-009 Expanded Access Protocol: single-agent ABI-009 in non-PEComa patients with relevant mTOR pathway mutations; format: in vivo, human; design: key: CR: disappearance of all target lesions; PR: at least a 30% decrease in the sum of the longest diameters (SLD) of target lesions; SD: neither sufficient shrinkage of target lesions to qualify for PR, nor sufficient increase to qualify for PD; PD: at least a 20% increase in the SLD of target lesions; conditions: Patient #4, metastatic epithelial ovarian carcinoma
Text: Seven patients were enrolled under ABI-009 Expanded Access Protocol. See Table 14 below for information about their tumor type, relevant mutation, failed prior therapy and response to ABI-009. ABI-009 was produced according to Example 7.

ABCB1/ABCG2 = conditions: cited from earlier work
[3] = in vivo; cited from earlier work
malignant PEComa = experiment: Case: malignant PEComa patient (TSC1 mutation) who failed everolimus, then treated with nab-sirolimus; format: in vivo, human
Procedure: A post-menopausal person with family history of lymphoma in their parent and breast, ovarian cancer in a paternal aunt, presented with abnormal uterine bleeding in July 2018. […] Following this, a laparoscopic hysterectomy with bilateral salpingo-oophorectomy was performed and pathology was consistent with malignant PEComa which stained positive for smooth muscle actin, HMB-45 and Melan-A (59 mitoses per 10 hpf).
The primary tumor was locally advanced, and no metastatic disease was present at the time of diagnosis, adjuvant chemotherapy was not administered, and the patient was monitored with serial scans.
Upon disease progression, the patient was started on 10 mg everolimus orally daily.
After failure of treatment with everolimus, the patient was treated with nab-sirolimus at 100 mg/m^2 on day 1 and day 8 of a 21 day cycle started in July of 2019. They also received stereotactic radiosurgery to the metastatic lesion in their brain.

[4] = system: tumors with TSC1 or TSC2 mutations; conditions: 2/30 patients; cited from earlier work

SMILES: CO[C@H]1C[C@@H]2CC[C@@H](C)[C@@](O)(O2)C(=O)C(=O)N2CCCC[C@H]2C(=O)O[C@H]([C@H](C)C[C@@H]2CC[C@@H](O)[C@H](OC)C2)CC(=O)[C@H](C)/C=C(\C)[C@@H](O)[C@@H](OC)C(=O)[C@H](C)C[C@H](C)/C=C/C=C/C=C/1C [Free rapamycin]
- Avg. Release (%) ([1]; 10 μg/ml rapamycin): 97.2%
- Avg. Release (%) ([1]; 500 μg/ml rapamycin): 18.3%

SMILES: CC(C)n1nc(-c2ccc3oc(N)nc3c2)c2c(N)ncnc21 [MLN0128]
- best response on prior MLN0128 [2]: SD

SMILES: COc1ccc(COc2cc3oc(=O)c4cc(C(C)O)ccc4c3cc2OC)cc1 (centres unmarked) [Palomid 529]
- affinity for ABCB1/ABCG2 (ABCB1/ABCG2): lacks affinity
- brain penetration [3]: good brain penetration

SMILES: CO[C@H]1C[C@@H]2CC[C@@H](C)[C@@](O)(O2)C(=O)C(=O)N2CCCC[C@H]2C(=O)O[C@H]([C@H](C)C[C@@H]2CC[C@@H](OCCO)[C@H](OC)C2)CC(=O)[C@H](C)/C=C(\C)[C@@H](O)[C@@H](OC)C(=O)[C@H](C)C[C@H](C)/C=C/C=C/C=C/1C [everolimus]
- CT scan result 2 months after starting everolimus (malignant PEComa; everolimus 10 mg orally daily, reduced to 5 mg): progressive disease
- adverse event related to everolimus (malignant PEComa; three weeks after beginning 10 mg orally daily): hospitalized due to fever and headache
- responses in patients with TSC1 or TSC2 mutations [4]: 7%
